Calls of active or inactive are those of the source. The rule behind the calls is not given here.
Assays:
[1] = test system: Panc 02.03; assay: Antiproliferative activity against human Panc 02.03 cells assessed as growth inhibition incubated for 72 hrs by celltiter-glo assay; assay type: functional
[2] = test system: Platelet-derived growth factor receptor alpha (Homo sapiens), P16234 [V561D]; assay: Inhibition of N-terminal his6-tagged recombinant human PDGFRA V561D mutant at 10 uM relative to control
[3] = test system: HN5; assay: Antiproliferative activity against human HN5 cells assessed as viable cell signal at maximum growth inhibition incubated for 72 hrs by celltiter-glo assay relative to control; assay type: functional
[4] = test system: Raji; assay: Antiproliferative activity against human Raji cells assessed as viable cell signal at maximum growth inhibition incubated for 72 hrs by celltiter-glo assay relative to control; assay type: functional
[5] = test system: MDA-MB-468; assay: Induction of mitotic arrest in human MDA-MB-468 cells assessed as effect on pHH3 level at 10 to 250 nmol/L incubated for 19 hrs by ELISA analysis; assay type: functional, cell-based; conditions: dose 10-250 nmol/L
[6] = test system: BT-549; assay: Antiproliferative activity against human BT-549 cells assessed as of viable cell signal at minimum maximum cell growth incubated for 72 hrs by celltiter-glo assay relative to control; assay type: functional
[7] = test system: Calu-1; assay: Antiproliferative activity against human Calu-1 cells assessed as viable cell signal at maximum growth inhibition incubated for 72 hrs by celltiter-glo assay relative to control; assay type: functional
[8] = test system: PANC-08-13; assay: Antiproliferative activity against human PANC-08-13 cells assessed as viable cell signal at maximum growth inhibition incubated for 72 hrs by celltiter-glo assay relative to control; assay type: functional
[9] = test system: T47D; assay: Antiproliferative activity against human T47D cells assessed as of viable cell signal at minimum maximum cell growth incubated for 72 hrs by celltiter-glo assay relative to control; assay type: functional
[10] = test system: COLO 205; assay: Antitumor activity against human COLO 205 cells xenografted in ip dosed Nude mouse assessed as increase in pIk1 level measured at 24 to 48 hrs by […]; assay type: functional, organism-based; conditions: dose 50-100 mg/kg, time 24-48 hrs
[11] = test system: SK-MEL-2; assay: Antiproliferative activity against human SK-MEL-2 cells assessed as of viable cell signal at minimum maximum cell growth incubated for 72 hrs by celltiter-glo assay relative to control; assay type: functional
[12] = test system: A549; assay: Induction of mitotic arrest in human A549 cells assessed as micronucleation at 20 nmol/L incubated for 16 hrs by DAPI staining based confocal microscopic analysis; assay type: functional, cell-based
[13] = test system: A2780; assay: Antiproliferative activity against human A2780 cells assessed as viable cell signal at maximum growth inhibition incubated for 72 hrs by celltiter-glo assay relative to control; assay type: functional
[14] = test system: NCI-N87; assay: Antiproliferative activity against human NCI-N87 cells assessed as viable cell signal at maximum growth inhibition incubated for 72 hrs by celltiter-glo assay relative to control; assay type: functional
[15] = test system: NCI-H358; assay: Antiproliferative activity against human NCI-H358 cells assessed as viable cell signal at maximum growth inhibition incubated for 72 hrs by celltiter-glo assay relative to control; assay type: functional
[16] = test system: NCI-H82; assay: Antiproliferative activity against human NCI-H82 cells assessed as of viable cell signal at minimum maximum cell growth incubated for 72 hrs by celltiter-glo assay relative to control; assay type: functional
[17] = test system: SK-BR-3; assay: Antiproliferative activity against human SK-BR-3 cells assessed as growth inhibition incubated for 72 hrs by celltiter-glo assay; assay type: functional
[18] = molecular target: PAS domain-containing serine/threonine-protein kinase (Homo sapiens) (UniProt Q96RG2); assay: Inhibition of recombinant human PASK at 10 uM relative to control
[19] = test system: PANC-08-13; assay: Antiproliferative activity against human PANC-08-13 cells assessed as growth inhibition incubated for 72 hrs by celltiter-glo assay; assay type: functional
[20] = test system: A549; assay: Antiproliferative activity against human A549 cells assessed as growth inhibition incubated for 72 hrs by celltiter-glo assay; assay type: functional
[21] = test system: ASPC1; assay: Antiproliferative activity against human ASPC1 cells assessed as of viable cell signal at minimum maximum cell growth incubated for 72 hrs by celltiter-glo assay relative to control; assay type: functional
[22] = molecular target: Vascular endothelial growth factor receptor 3 (Homo sapiens) (UniProt P35916); assay: Inhibition of N-terminal GST-tagged recombinant human FLT4 (800 to end residues) at 10 uM relative to control
[23] = test system: ZR-75-1; assay: Antiproliferative activity against human ZR-75-1 cells assessed as growth inhibition incubated for 72 hrs by celltiter-glo assay; assay type: functional
[24] = test system: U2OS; assay: Antiproliferative activity against human U2OS cells assessed as of viable cell signal at minimum maximum cell growth incubated for 72 hrs by celltiter-glo assay relative to control; assay type: functional
[25] = test system: SW480; assay: Antiproliferative activity against human SW480 cells assessed as growth inhibition incubated for 72 hrs by celltiter-glo assay; assay type: functional
[26] = test system: DU-145; assay: Antiproliferative activity against human DU-145 cells assessed as viable cell signal at maximum growth inhibition incubated for 72 hrs by celltiter-glo assay relative to control; assay type: functional
[27] = test system: NCI-H82; assay: Antiproliferative activity against human NCI-H82 cells assessed as growth inhibition incubated for 72 hrs by celltiter-glo assay; assay type: functional
[28] = test system: DLD-1; assay: Antiproliferative activity against human DLD-1 cells assessed as growth inhibition incubated for 72 hrs by celltiter-glo assay; assay type: functional
[29] = test system: LNCaP; assay: Antiproliferative activity against human LNCaP cells assessed as viable cell signal at maximum growth inhibition incubated for 72 hrs by celltiter-glo assay relative to control; assay type: functional
[30] = test system: ASPC1; assay: Antiproliferative activity against human ASPC1 cells assessed as growth inhibition incubated for 72 hrs by celltiter-glo assay; assay type: functional
[31] = test system: Calu-1; assay: Antiproliferative activity against human Calu-1 cells assessed as of viable cell signal at minimum maximum cell growth incubated for 72 hrs by celltiter-glo assay relative to control; assay type: functional
[32] = test system: HCT-116; assay: Antiproliferative activity against human HCT-116 cells assessed as growth inhibition incubated for 72 hrs by celltiter-glo assay; assay type: functional
[33] = test system: K562; assay: Antiproliferative activity against human K562 cells assessed as of viable cell signal at minimum maximum cell growth incubated for 72 hrs by celltiter-glo assay relative to control; assay type: functional
[34] = test system: NCI-H82; assay: Antiproliferative activity against human NCI-H82 cells assessed as viable cell signal at maximum growth inhibition incubated for 72 hrs by celltiter-glo assay relative to control; assay type: functional
[35] = test system: MIA PaCa-2; assay: Antiproliferative activity against human MIA PaCa-2 cells assessed as growth inhibition incubated for 72 hrs by celltiter-glo assay; assay type: functional
[36] = test system: SK-MEL-28; assay: Antiproliferative activity against human SK-MEL-28 cells assessed as of viable cell signal at minimum maximum cell growth incubated for 72 hrs by celltiter-glo assay relative to control; assay type: functional
[37] = test system: Panc 02.03; assay: Antiproliferative activity against human Panc 02.03 cells assessed as viable cell signal at maximum growth inhibition incubated for 72 hrs by celltiter-glo assay relative to control; assay type: functional
[38] = test system: ZR-75-1; assay: Growth inhibition of human ZR-75-1 cells assessed as caspase-3/caspase-7 activation at 0.1 nmol/L incubated for 5 to 7 days by […]; assay type: functional, cell-based; conditions: time 5-7 day
[39] = molecular target: Calcium/calmodulin-dependent protein kinase type II subunit beta (Homo sapiens) (UniProt Q13554); assay: Inhibition of recombinant human CaMKII-beta at 10 uM relative to control
[40] = test system: MDA-MB-468; assay: Antiproliferative activity against human MDA-MB-468 cells assessed as viable cell signal at maximum growth inhibition incubated for 72 hrs by celltiter-glo assay relative to control; assay type: functional
[41] = test system: DLD-1; assay: Antiproliferative activity against human DLD-1 cells assessed as of viable cell signal at minimum maximum cell growth incubated for 72 hrs by celltiter-glo assay relative to control; assay type: functional

Chain of Calcium/calmodulin-dependent protein kinase type II subunit beta (Homo sapiens) (Q13554 whole entry): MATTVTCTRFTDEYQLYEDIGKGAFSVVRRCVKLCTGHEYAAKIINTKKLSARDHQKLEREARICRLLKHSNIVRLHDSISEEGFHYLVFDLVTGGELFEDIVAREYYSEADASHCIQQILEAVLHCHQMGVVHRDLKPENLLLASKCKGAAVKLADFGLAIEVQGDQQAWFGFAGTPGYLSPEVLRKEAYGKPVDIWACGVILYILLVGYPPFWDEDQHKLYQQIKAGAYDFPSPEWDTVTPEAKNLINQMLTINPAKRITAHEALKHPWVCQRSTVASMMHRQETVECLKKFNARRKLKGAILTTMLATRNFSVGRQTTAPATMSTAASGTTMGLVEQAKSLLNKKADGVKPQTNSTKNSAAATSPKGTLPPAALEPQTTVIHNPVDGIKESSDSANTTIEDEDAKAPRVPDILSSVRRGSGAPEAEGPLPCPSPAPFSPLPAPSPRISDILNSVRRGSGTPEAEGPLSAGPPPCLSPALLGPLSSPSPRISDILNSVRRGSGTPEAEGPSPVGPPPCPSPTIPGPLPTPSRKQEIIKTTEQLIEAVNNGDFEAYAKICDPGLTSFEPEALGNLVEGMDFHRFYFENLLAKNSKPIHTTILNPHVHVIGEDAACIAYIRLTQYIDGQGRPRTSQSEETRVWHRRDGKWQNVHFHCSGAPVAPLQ
Chain of Vascular endothelial growth factor receptor 3 (Homo sapiens) (P35916 whole entry): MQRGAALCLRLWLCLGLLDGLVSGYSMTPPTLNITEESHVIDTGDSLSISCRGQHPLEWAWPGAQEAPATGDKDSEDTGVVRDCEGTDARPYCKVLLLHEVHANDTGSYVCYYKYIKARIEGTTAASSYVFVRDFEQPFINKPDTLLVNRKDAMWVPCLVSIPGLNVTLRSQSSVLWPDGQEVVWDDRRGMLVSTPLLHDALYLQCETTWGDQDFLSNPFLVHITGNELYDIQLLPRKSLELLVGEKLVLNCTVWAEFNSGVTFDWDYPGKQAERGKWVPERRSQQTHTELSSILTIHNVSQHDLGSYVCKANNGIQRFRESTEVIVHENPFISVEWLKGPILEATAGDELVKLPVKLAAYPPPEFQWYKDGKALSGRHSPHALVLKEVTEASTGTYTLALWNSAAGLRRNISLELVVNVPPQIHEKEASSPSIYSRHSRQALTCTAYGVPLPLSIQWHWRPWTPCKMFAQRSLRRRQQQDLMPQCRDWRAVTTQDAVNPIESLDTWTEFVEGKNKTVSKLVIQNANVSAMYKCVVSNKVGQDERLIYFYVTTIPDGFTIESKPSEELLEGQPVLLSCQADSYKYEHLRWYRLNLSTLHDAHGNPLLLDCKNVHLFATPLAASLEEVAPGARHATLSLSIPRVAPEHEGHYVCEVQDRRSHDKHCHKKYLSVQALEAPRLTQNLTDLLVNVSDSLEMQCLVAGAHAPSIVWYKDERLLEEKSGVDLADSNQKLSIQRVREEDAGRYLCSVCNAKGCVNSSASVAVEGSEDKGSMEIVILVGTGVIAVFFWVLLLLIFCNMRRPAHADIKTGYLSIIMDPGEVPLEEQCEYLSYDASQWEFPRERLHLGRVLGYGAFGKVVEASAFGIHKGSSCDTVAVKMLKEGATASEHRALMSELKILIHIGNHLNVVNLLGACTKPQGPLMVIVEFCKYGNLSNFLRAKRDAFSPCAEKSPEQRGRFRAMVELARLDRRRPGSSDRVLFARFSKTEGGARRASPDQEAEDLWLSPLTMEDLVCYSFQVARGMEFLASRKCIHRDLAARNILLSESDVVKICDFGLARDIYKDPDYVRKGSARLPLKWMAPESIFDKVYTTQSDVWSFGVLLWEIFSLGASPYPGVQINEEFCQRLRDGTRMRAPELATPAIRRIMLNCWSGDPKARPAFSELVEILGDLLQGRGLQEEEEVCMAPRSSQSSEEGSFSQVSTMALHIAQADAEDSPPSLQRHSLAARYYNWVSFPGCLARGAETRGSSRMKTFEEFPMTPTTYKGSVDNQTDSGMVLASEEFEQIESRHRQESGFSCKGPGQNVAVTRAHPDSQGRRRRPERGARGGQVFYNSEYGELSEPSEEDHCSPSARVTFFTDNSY
Chain of PAS domain-containing serine/threonine-protein kinase (Homo sapiens) (Q96RG2 whole entry, the tested form may be a part): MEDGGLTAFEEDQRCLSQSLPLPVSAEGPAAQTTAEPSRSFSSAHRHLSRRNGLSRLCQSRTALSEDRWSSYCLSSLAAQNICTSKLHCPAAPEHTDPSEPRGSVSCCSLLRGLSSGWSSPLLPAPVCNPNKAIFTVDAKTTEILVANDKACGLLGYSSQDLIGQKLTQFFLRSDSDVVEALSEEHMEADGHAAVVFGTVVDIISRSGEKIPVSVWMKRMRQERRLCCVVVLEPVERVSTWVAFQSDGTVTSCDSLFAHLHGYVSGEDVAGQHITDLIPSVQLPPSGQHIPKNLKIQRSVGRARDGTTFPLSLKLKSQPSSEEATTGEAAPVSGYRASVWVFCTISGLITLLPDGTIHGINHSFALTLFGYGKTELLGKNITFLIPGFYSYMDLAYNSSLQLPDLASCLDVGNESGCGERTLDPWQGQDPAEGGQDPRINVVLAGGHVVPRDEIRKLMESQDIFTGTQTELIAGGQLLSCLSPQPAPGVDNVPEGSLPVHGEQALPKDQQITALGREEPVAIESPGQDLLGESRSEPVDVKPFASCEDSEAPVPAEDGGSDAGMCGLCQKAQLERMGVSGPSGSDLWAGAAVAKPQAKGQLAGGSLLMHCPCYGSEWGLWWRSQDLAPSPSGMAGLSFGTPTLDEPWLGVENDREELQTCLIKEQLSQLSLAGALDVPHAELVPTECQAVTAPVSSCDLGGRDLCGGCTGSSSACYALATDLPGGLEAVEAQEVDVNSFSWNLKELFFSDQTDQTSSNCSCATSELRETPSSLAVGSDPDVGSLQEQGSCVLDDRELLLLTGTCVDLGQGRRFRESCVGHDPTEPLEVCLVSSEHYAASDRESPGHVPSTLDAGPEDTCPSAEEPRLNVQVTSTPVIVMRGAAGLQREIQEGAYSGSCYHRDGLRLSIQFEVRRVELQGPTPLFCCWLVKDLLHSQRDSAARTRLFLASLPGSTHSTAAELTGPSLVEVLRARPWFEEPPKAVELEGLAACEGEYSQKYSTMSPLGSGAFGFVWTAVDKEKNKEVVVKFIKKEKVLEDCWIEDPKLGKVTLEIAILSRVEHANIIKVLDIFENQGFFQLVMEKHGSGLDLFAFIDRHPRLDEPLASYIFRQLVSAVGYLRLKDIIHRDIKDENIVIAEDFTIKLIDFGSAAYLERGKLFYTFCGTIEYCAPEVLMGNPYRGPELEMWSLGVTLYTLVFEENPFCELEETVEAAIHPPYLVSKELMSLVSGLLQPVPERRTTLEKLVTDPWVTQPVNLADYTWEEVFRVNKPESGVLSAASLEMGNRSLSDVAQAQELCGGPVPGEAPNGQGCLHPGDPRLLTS
Chain of Platelet-derived growth factor receptor alpha (Homo sapiens), P16234 [V561D] (P16234 whole entry V561D): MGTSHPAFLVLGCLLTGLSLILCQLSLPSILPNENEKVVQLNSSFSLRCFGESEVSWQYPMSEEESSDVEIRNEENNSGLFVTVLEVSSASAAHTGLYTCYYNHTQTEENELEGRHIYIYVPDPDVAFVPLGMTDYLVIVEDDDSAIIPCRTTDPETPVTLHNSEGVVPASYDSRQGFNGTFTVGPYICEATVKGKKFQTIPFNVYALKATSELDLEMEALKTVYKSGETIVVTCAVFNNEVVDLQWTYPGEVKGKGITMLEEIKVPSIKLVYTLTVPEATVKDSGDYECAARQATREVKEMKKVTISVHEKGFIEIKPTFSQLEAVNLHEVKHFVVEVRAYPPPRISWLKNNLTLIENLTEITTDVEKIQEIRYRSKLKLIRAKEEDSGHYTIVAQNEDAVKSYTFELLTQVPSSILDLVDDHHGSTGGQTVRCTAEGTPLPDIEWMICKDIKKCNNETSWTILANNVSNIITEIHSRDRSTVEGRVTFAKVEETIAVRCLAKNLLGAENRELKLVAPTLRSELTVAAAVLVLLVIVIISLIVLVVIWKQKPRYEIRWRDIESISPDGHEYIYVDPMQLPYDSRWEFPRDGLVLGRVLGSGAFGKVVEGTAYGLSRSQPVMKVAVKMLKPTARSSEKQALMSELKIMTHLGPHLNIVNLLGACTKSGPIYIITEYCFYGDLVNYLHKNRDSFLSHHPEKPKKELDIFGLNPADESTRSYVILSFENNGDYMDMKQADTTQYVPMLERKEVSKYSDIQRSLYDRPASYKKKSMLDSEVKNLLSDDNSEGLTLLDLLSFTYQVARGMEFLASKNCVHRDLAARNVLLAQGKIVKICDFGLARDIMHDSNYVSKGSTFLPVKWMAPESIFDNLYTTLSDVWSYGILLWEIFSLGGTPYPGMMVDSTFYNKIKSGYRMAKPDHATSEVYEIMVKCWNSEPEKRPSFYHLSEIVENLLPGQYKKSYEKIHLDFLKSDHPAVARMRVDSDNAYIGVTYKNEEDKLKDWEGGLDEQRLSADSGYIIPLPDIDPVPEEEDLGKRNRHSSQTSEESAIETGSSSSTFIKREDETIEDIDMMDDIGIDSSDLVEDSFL

Structure (SMILES): C[C@@H](Oc1cc(-n2cnc3ccc(CN4CCN(C)CC4)cc32)sc1C(N)=O)c1ccccc1C(F)(F)F [GSK-461364]
- GI50 [1]: 20.9 nM
- inhibition [2]: 96%
- Emax [3]: 812%
- Emax [4]: 434%
- Activity [5]: Active
- Emin [6]: 77.2%
- Emax [7]: 371%
- Emax [8]: 256%
- Emin [9]: 205%
- Activity [10]: Dose-Dependent Effect
- Emin [11]: 71.3%
- Activity [12]: Active
- Emax [13]: 977%
- Emax [14]: 776%
- Emax [15]: 308%
- Emin [16]: 22.8%
- GI50 [17]: 15.8 nM
- inhibition [18]: 63%
- GI50 [19]: 18.9 nM
- GI50 [20]: 34 nM
- Emin [21]: 114%
- inhibition [22]: 87%
- GI50 [23]: 46.5 nM
- Emin [24]: 170.6%
- GI50 [25]: 130 nM
- Emax [26]: 500%
- GI50 [27]: 4.85 nM
- GI50 [28]: 48.9 nM
- Emax [29]: 470%
- GI50 [30]: 22.3 nM
- Emin [31]: 179.8%
- GI50 [32]: 50.5 nM
- Emin [33]: 91.2%
- Emax [34]: 398%
- GI50 [35]: 39.9 nM
- Emin [36]: 199.6%
- Emax [37]: 420%
- Activity [38]: Active
- inhibition [39]: 56%
- Emax [40]: 458%
- Emin [41]: 441.3%
